Laboratory results reported in patent publication US20240287071A1, “CLASS OF IMIDAZOLIDINOPYRIMIDONE COMPOUNDS AND USE THEREOF IN TREATMENT OF HSCLPP-MEDIATED DISEASES” (SICHUAN UNIVERSITY, priority 2021, published 2024).

Target: HsClpP (Homo sapiens, UniProt Q16740)
Experiment: HsClpP enzyme hydrolysis of short peptide substrate AC-WLA-AMC
Conditions: promoting hydrolysis of short peptide substrate by HsClpP, relative to blank control

HsClpP, sequence (Q16740 57-277): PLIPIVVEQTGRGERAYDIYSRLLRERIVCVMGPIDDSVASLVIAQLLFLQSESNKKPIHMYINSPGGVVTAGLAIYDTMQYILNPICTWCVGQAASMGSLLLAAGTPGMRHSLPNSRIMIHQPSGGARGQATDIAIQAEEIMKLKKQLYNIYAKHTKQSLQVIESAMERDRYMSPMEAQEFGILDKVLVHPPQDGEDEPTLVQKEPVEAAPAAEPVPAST

| SMILES | Regulatory efficacy 1 μM | Regulatory efficacy 10 μM |
| --- | --- | --- |
| O=c1nc2n(c3c1CN(Cc1ccccc1)CC3(F)F)CCN2Cc1ccc(F)c(Br)c1 [Compound 49, 7-Benzyl-9,9-difluoro-3-(3-bromo-4-fluorobenzyl)-2,3,6,7,8,9-hexahydroimidazo[1,2-a]pyrido[3,4-e]pyrimidin-5(1H)-one] | + + | + + |
| N#Cc1cccc(CN2Cc3c(n4c(nc3=O)N(Cc3ccc(F)c(F)c3)CC4)C(F)(F)C2)c1 [Compound 50, 3-((3-(3,4-difluorobenzyl)-9,9-difluoro-5-oxo-2,3,6,7,8,9-hexahydroimidazo[1,2-a]pyrido[3,4-e]pyrimidin-7(6H)-yl)methyl)benzonitrile] | + + | + + |
| COC(=O)c1cccc(CN2CCn3c2nc(=O)c2c3C(F)(F)CN(Cc3cccc(C#N)c3)C2)c1 [Compound 51] | + + | + + |
| N#Cc1cccc(CN2Cc3c(n4c(nc3=O)N(Cc3ccccc3)CC4)C(F)(F)C2)c1 [Compound 52, 3-((3-benzyl-9,9-difluoro-5-oxo-2,3,6,7,8,9-hexahydroimidazo[1,2-a]pyrido[3,4-e]pyrimidin-7(6H)-yl)methyl)benzonitrile] | + + | + + |
| N#Cc1cccc(CN2Cc3c(n4c(nc3=O)N(Cc3cccc(F)c3)CC4)C(F)(F)C2)c1 [Compound 53, 3-((3-(3-fluorobenzyl)-9,9-difluoro-5-oxo-2,3,6,7,8,9-hexahydroimidazo[1,2-a]pyrido[3,4-e]pyrimidin-7(6H)-yl)methyl)benzonitrile] | + + | + + |
| N#Cc1cccc(CN2Cc3c(n4c(nc3=O)N(Cc3ccc(F)c(Br)c3)CC4)C(F)(F)C2)c1 [Compound 54, 3-((3-(3-bromo-4-fluorobenzyl)-9,9-difluoro-5-oxo-2,3,6,7,8,9-hexahydroimidazo[1,2-a]pyrido[3,4-e]pyrimidin-7(6H)-yl)methyl)benzonitrile] | + + | + + |
| CC(C)CCN1CCn2c1nc(=O)c1c2C(F)(F)CN(Cc2cccc(C#N)c2)C1 [Compound 55, 3-((9,9-difluoro-3-isopentyl-5-oxo-2,3,6,7,8,9-hexahydroimidazo[1,2-a]pyrido[3,4-e]pyrimidin-7(6H)-yl)methyl)benzonitrile] | + + | + + |
| Cc1ccc(CN2CCn3c2nc(=O)c2c3C(F)(F)CN(Cc3cccc(C#N)c3)C2)cc1 [Compound 56, 3-((9,9-difluoro-3-(4-methylbenzyl)-5-oxo-2,3,6,7,8,9-hexahydroimidazo[1,2-a]pyrido[3,4-e]pyrimidin-7(6H)-yl)methyl)benzonitrile] | + + | + + |
| N#Cc1cccc(CN2Cc3c(n4c(nc3=O)N(Cc3ccc(Cl)c(Cl)c3)CC4)C(F)(F)C2)c1 [Compound 57, 3-((9,9-difluoro-3-(3,4-dichlorobenzyl)-5-oxo-2,3,6,7,8,9-hexahydroimidazo[1,2-a]pyrido[3,4-e]pyrimidin-7(6H)-yl)methyl)benzonitrile] | + + | + + |
| Cc1cccc(CN2CCn3c2nc(=O)c2c3C(F)(F)CN(Cc3cccc(C#N)c3)C2)c1 [Compound 58, 3-((9,9-difluoro-3-(3-methylbenzyl)-5-oxo-2,3,6,7,8,9-hexahydroimidazo[1,2-a]pyrido[3,4-e]pyrimidin-7(6H)-yl)methyl)benzonitrile] | + + | + + |
| O=c1nc2n(c3c1CN(Cc1ccccc1)CC3)CCN2Cc1cccc(Br)c1 [Compound 59, 7-Benzyl-3-(3-bromobenzyl)-2,3,6,7,8,9-hexahydroimidazo[1,2-a]pyrido[3,4-e]pyrimidin-5(1H)-one] | + + | + + |
| O=c1nc2n(c3c1CN(Cc1ccccc1)CC3)CCN2Cc1ccccc1Cl [Compound 61, 7-Benzyl-3-(2-chlorobenzyl)-2,3,6,7,8,9-hexahydroimidazo[1,2-a]pyrido[3,4-e]pyrimidin-5(1H)-one] | + + | + + |
| O=c1nc2n(c3c1CN(Cc1ccccc1)CC3)CCN2Cc1ccccc1F [Compound 62, 7-Benzyl-3-(2-fluorobenzyl)-2,3,6,7,8,9-hexahydroimidazo[1,2-a]pyrido[3,4-e]pyrimidin-5(1H)-one] | + + | + + |
| O=c1nc2n(c3c1CN(Cc1ccccc1)CC3)CCN2Cc1cccc(F)c1 [Compound 63, 7-Benzyl-3-(3-fluorobenzyl)-2,3,6,7,8,9-hexahydroimidazo[1,2-a]pyrido[3,4-e]pyrimidin-5(1H)-one] | + (+ indicating that the increased efficacy is less than 50% of the blank control group) | + + |
| COc1cccc(CN2CCn3c2nc(=O)c2c3CCN(Cc3ccccc3)C2)c1 [Compound 64, 7-Benzyl-3-(3-methoxybenzyl)-2,3,6,7,8,9-hexahydroimidazo[1,2-a]pyrido[3,4-e]pyrimidin-5(1H)-one] | + + | + + |
| CCN1CCn2c1nc(=O)c1c2C(F)(F)CN(Cc2ccccc2)C1 [Compound 65, 7-Benzyl-3-ethyl-9,9-difluoro-2,3,6,7,8,9-hexahydroimidazo[1,2-a]pyrido[3,4-e]pyrimidin-5(1H)-one] | + (+ indicating that the increased efficacy is less than 50% of the blank control group) | + + |
| O=c1nc2n(c3c1CN(Cc1ccccc1)CC3(F)F)CCN2CC1CCCCC1 [Compound 66, 7-Benzyl-3-(cyclohexylmethyl)-9,9-difluoro-2,3,6,7,8,9-hexahydroimidazo[1,2-a]pyrido[3,4-e]pyri midin-5(1H)-one] | + + | + + |
| O=c1nc2n(c3c1CN(Cc1ccccc1)CC3(F)F)CCN2c1ccccc1 [Compound 67, 7-Benzyl-9,9-difluoro-3-phenyl-2,3,6,7,8,9-hexahydroimidazo[1,2-a]pyrido[3,4-e]pyrimidin-5(1H)-one] | + + | + + |
| O=c1nc2n(c3c1CN(Cc1ccccc1)CC3(F)F)CCN2Cc1ccccc1 [Compound 68, 3,7-Dibenzyl-9,9-difluoro-2,3,6,7,8,9-hexahydroimidazo[1,2-a]pyrido[3,4-e]pyrimidin-5(1H)-one] | + + | + + |
| O=c1nc2n(c3c1CN(Cc1ccccc1)CC3(F)F)CCN2CCc1ccccc1 [Compound 69, 7-Benzyl-9,9-difluoro-3-phenylethyl-2,3,6,7,8,9-hexahydroimidazo[1,2-a]pyrido[3,4-e]pyrimidin-5(1H)-one] | + + | + + |
